Laboratory results published in patent US20250229006A1, “3D PRINTED ARTIFICIAL BILE DUCTS AND MANUFACTURING METHOD THEREOF” (IUCF-HYU (INDUSTRY-UNIVERSITY COOPERATION FOUNDATION …, priority 2024, published 2025).
“Also recorded” adds a separate entry of the source.

How the values were obtained:
[1] = tested on: human chemically derived hepatic progenitors (hCdHs); assay: Differentiation of hCdHs into cholangiocytes (hCdH-Chols) on ABD; type: cell-based
Description: In manufacturing a 3D artificial bile duct disclosed in the present specification, cholangiocytes (hCdH-Chols) derived from human chemically derived hepatic progenitors (hCdHs) were used. Because primary cholangiocytes from humans and other mammals are difficult to isolate and propagate in vitro, human chemically derived hepatic progenitors (hCdHs) were utilized for biliary epithelium modeling. To generate hCdHs, human adult hepatocytes isolated from healthy donor livers were directly reprogrammed into bi-potent progenitors through combinatorial treatment with two small molecules, A83-01 and CHIR99021, in the presence of a hepatocyte growth factor (HGF) as described in a recent publication (Y. Kim, K. Kang, S. B. Lee, D. Seo, S. Yoon, […]. Jang, Y. K. Jung, K. G. Lee, V. M. Factor, J. Jeong, D. Choi, J Hepatol 2019, 70, 97.). A cholangiocyte differentiation protocol was applied when hCdHs reached a passage 3. The hCdHs cultured for 14 days in a cholangiocyte differentiation medium comprising Na-taurocholate (100 uM) and CHIR99021 ([…]) in the presence of a HGF for hCdH-Chols differentiation. The ABDs comprising the inner fibrous layer electrospun using 21 G and 27 G needles by the method of Example 2 were treated with UDCA, and after 50 days, whether differentiation into cholangiocytes using human chemically derived hepatic progenitors (hCdHs) is promoted was evaluated. As a control group, a 3D ABD untreated with UDCA was compared.

[2] = Evaluation of bile stones dissolution capacity; conditions: 0.5% UDCA, 37° C. with constant movement, 120 hours, bile stone weights measured every 24 hours; compared with water, EDTA, MTBE, Paclitaxel, Gemcitabine
Description: Pigment bile stones were stored in water, 1% ethylenediaminetetraacetic acid (EDTA), 0.5% ursodeoxycholic acid (UDCA), 99% methyl tert-butyl ether (MTBE), 20 μg/ml of Paclitaxel, and 200 uM of Gemcitabine, observed for 120 hours at 37° C. with constant movement, and the weights of the bile stones were measured every 24 hours to evaluate bile stone dissolution capacity (FIG. 1).

## C[C@H](CCC(=O)O)[C@H]1CC[C@H]2[C@@H]3[C@@H](O)C[C@@H]4C[C@H](O)CC[C@]4(C)[C@H]3CC[C@]12C [UDCA, ursodeoxycholic acid]
[1]; ABD treated with UDCA, after 50 days, vs 3D ABD untreated with UDCA
  differentiation of hepatic progenitors (hCdHs) into cholangiocytes (hCdH-Chols): promoted differentiation
[1]; UDCA present in inner fibrous layer of ABD vs 3D ABD untreated with UDCA
  attachment of cells to the bile ducts by nanofibers of the inner fibrous layer: better attached cells to the bile ducts
[1]; after a period of differentiation
  expression of cholangiocyte markers in hCdH-Chols: high levels
[2]
  bile stone dissolution capacity: dissolved the most; also recorded: significantly increased compared to other solvents
